Activity calls are given as the source filed them.
Assays:
Keap1/Nrf2 = Keap1/Nrf2 (Homo sapiens, UniProt Q14145); assay: disruptors of Keap1 binding to Nrf2 peptide – biochemical, fluorescence polarization, cherry-picked samples, dose response (AID 588683)
[1] = target: Glutathione-S-transferase (Schistosoma japonicum, UniProt Q26513); assay: GST-antibody interaction or FRET quenching – biochemical, TR-FRET, artefact control for Vif-APOBEC3G degradation inhibitor project, dose response (AID 1117362); format: functional
Danio rerio = assay: In Vivo Angiogenesis Dose-Response Confirmation. [Related pubchem assays: 732 (Assay preceding this confirmatory assay.)]; format: functional, organism-based
Leucine aminopeptidase = target: T1, Leucine aminopeptidase (Plasmodium falciparum 3D7, UniProt Q8IL11); assay: P. falciparum M17LAP inhibitors, primary screen, biochemical, fluorogenic H-Leu-NHMec substrate, 1536-well (AID 1619); format: functional
T1 sequence (Q8IL11 whole entry): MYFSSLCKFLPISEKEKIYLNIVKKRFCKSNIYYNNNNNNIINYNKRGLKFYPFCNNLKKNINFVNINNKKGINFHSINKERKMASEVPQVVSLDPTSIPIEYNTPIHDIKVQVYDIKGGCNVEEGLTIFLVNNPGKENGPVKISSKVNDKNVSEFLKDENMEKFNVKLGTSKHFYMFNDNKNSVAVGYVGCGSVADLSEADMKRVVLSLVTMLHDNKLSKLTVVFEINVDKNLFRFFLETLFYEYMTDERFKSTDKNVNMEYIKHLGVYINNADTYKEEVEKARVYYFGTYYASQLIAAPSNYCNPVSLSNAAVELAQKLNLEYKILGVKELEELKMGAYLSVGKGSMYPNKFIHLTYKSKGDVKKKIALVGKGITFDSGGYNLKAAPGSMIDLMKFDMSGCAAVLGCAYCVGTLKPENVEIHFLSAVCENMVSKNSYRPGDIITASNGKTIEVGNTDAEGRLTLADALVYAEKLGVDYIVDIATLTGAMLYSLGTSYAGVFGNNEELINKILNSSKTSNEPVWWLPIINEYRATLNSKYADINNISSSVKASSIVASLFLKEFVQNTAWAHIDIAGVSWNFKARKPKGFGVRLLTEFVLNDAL

[2] = target: Heat shock protein HSP 90-alpha (Homo sapiens, UniProt P07900); assay: Luminescence-based dose response biochemical high throughput screening assay for inhibitors of the Heat Shock Protein 90 (HSP90). [Related pubchem assays: 1831 (Summary AID.), 1846 (Confirmation screen.), 1789 (Primary screen.)]
Genome polyprotein = Genome polyprotein (dengue virus type 2, UniProt P29990); assay: flavivirus cap methylation enzyme inhibition – biochemical, confirmation dose response, primary screen (AID 588689); format: functional
[3] = target: Tyrosine-protein phosphatase non-receptor type 11 (Homo sapiens, UniProt Q06124); assay: PTPN11 enzyme inhibitors – biochemical, selectivity assay for STEP inhibitor project, dose response (AID 602367); format: functional; details: read-out: IC50_Mean
[4] = target: T2, Carboxy-terminal domain RNA polymerase II polypeptide A small phosphatase 1 (Homo sapiens, UniProt Q9GZU7); assay: CTDSP1 inhibitors, concentration-response, biochemical, absorbance readout, ultra-high-throughput screen actives (AID 540297); format: functional
T2 sequence (Q9GZU7 whole entry): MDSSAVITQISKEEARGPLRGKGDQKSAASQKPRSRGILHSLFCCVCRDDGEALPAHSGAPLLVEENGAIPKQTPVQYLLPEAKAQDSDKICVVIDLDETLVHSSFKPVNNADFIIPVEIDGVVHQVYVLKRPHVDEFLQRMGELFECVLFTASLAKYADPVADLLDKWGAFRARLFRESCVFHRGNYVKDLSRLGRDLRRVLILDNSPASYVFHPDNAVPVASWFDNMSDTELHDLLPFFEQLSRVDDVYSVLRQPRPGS

[5] = target: Tyrosine-protein phosphatase non-receptor type 5 (Homo sapiens, UniProt P54829); assay: PTPN5 enzyme inhibition – biochemical, fluorescence intensity, uHTS hits, confirmation (AID 602372); format: functional; details: read-out: IC50_Mean
[6] = target: Dual specificity protein phosphatase 3 (Homo sapiens, UniProt P51452); assay: VHR phosphatase inhibition, dose response, selectivity assay for STEP inhibitor project, biochemical (AID 602374); format: functional; details: read-out: IC50_Mean
[7] = target: Bifunctional protein GlmU (Mycobacterium tuberculosis, UniProt P9WMN3); assay: Inhibitors of Mycobacterial Glucosamine-1-phosphate acetyl transferase (GlmU). Secondary screen.; design: species or system Mycobacterium tuberculosis H37Rv
[8] = BioA aminotransferase inhibition, coupled fluorescent readout – biochemical, coupled fluorescence displacement, 20-point, dry powder, dose response (AID 743357); format: functional
[9] = target: G-protein coupled receptor 183 (Homo sapiens, UniProt P32249); assay: SAR confirmation of small molecule antagonists of the EBI2 receptor via a luminescent beta-arrestin assa.; format: functional
[10] = Dd2 malaria parasite growth inhibition potency – SYBR Green, dry powder samples, dose response (AID 1159566); format: functional, cell-based;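 note: potency for growth inhibition with lower SYBR green DNA signal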
[11] = growth inhibition of yeast DHODH-expressing 3D7 parasites – SYBR Green, dry powder samples, dose response (AID 1159570); format: functional, cell-based;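 note: parasite growth measured after 72 hours of compound exposure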
[12] = growth inhibition of PfATP4-mutant resistant parasites – NITD609-resistant line, SYBR Green, dry powder, dose response (AID 1159571); format: functional, cell-based;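 note: parasites synchronized at ring stage by sorbitol before testing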
[13] = toxicity to human hepatoma HepG2 cells – cell-based, cherry-picked samples, cytotoxicity control, dose response (AID 1159577); format: functional
[14] = P. falciparum Dd2 growth inhibitors, dose response, SYBR Green, cherry-picked samples (AID 1159567); format: functional, cell-based
[15] = growth inhibition of SK-MEL-5 melanoma cells – cell-based, CellTiter-Glo luminescence, dry powder, set 8, orthogonal assay for MITF inhibitor project, dose response (AID 651586); format: functional
[16] = melanocyte viability loss, MITF-dependent cells, cell-based, plate reader, dry powder, cytotoxicity control, dose response (AID 651920); format: functional
[17] = MITF Orthogonal Assay: SK-MEL-5 CTG Assay Measured in Cell-Based System Using Plate Reader - 2084-02_Inhibitor_Dose_DryPowder_Activity_Set5.; format: functional
[18] = growth inhibition of MALME3 cells – cell-based, CellTiter-Glo luminescence, dry powder, set 5, orthogonal assay for MITF inhibitor project, dose response (AID 651584); format: functional; details: MALME-3
[19] = MITF Orthogonal Assay: MALME3 CTG Assay Measured in Cell-Based System Using Plate Reader - 2084-04_Inhibitor_Dose_DryPowder_Activity_Set6.; format: functional; details: MALME-3
[20] = viability loss in MITF-independent A375 cells – cell-based, CellTiter-Glo luminescence, dry powder, set 6, counter-screen for MITF inhibitor project, dose response (AID 624488); format: functional; details: A-375
[21] = cytotoxicity in MITF-independent A375 cells – cell-based, CellTiter-Glo luminescence, dry powder, set 4, counter-screen for MITF inhibitor project, dose response (AID 624364); format: functional; details: A-375;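 note: A375 melanoma cells are MITF independent so this is a counter screen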
[22] = MITF Measured in Cell-Based System Using Plate Reader - 2084-01_Inhibitor_Dose_DryPowder_Activity_Set6.; format: functional
[23] = cytotoxicity in MITF-independent A375 cells – cell-based, CellTiter-Glo luminescence, dry powder, set 9, counter-screen for MITF modulator project, dose response (AID 651591); format: functional; details: A-375
[24] = viability loss in MITF-independent A375 cells – cell-based, CellTiter-Glo luminescence, dry powder, set 2, counter-screen for MITF inhibitor project, dose response (AID 624489); format: functional; details: A-375;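 note: actives are compounds lowering A375 viability meaning general cytotoxicity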
[25] = viability loss in MITF-independent A375 cells – cell-based, CellTiter-Glo luminescence, dry powder, set 7, counter-screen for MITF inhibitor project, dose response (AID 624490); format: functional; details: A-375
[26] = cytotoxicity in melanoma parental cells – cell-based, CellTiter-Glo, dry powder, set 6, MITF inhibitor project, dose response (AID 624429); format: functional; details: SK-MEL-5
[27] = MITF Measured in Cell-Based System Using Plate Reader - 2084-01_Inhibitor_Dose_DryPowder_Activity_Set7.; format: functional
[28] = inhibitors of TRPM1-promoter reporter in SK-MEL-5 – cell-based, luciferase, dry powder, set 9, MITF inhibitor project, dose response (AID 651588); format: functional

Keap1/Nrf2, sequence (Q16236 whole entry): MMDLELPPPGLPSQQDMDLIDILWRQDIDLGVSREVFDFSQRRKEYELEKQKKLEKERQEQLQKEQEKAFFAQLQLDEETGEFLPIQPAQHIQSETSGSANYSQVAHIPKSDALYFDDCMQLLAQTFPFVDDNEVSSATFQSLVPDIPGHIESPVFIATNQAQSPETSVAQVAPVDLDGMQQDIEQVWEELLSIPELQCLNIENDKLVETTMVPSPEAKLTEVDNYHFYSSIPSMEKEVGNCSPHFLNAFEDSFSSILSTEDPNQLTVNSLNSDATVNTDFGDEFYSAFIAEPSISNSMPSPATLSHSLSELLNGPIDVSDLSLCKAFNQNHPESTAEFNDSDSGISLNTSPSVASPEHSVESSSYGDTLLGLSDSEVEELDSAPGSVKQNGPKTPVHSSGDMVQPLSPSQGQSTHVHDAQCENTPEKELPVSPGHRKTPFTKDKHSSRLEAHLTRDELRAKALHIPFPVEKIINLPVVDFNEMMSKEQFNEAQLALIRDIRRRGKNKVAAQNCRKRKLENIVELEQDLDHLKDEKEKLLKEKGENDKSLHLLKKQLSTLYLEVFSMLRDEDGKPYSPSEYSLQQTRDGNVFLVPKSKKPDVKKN
Keap1/Nrf2, sequence (Q14145 whole entry): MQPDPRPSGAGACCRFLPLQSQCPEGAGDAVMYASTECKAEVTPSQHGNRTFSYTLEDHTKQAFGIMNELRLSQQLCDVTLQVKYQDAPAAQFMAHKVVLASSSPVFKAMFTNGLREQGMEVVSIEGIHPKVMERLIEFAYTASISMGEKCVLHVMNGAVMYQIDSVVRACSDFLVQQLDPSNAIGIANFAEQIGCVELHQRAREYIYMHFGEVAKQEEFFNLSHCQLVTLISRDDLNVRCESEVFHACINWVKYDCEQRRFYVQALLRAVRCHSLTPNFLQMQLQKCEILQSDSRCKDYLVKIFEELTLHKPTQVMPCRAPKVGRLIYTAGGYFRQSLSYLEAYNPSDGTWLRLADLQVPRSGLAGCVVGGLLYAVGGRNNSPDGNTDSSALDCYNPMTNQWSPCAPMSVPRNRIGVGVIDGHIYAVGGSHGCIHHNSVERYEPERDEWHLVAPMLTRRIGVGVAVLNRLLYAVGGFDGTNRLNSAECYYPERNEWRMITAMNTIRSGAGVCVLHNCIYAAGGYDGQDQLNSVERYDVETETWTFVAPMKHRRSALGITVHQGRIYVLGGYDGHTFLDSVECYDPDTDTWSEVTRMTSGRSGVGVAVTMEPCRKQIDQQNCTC
Tyrosine-protein phosphatase non-receptor type 5, sequence (P54829 whole entry): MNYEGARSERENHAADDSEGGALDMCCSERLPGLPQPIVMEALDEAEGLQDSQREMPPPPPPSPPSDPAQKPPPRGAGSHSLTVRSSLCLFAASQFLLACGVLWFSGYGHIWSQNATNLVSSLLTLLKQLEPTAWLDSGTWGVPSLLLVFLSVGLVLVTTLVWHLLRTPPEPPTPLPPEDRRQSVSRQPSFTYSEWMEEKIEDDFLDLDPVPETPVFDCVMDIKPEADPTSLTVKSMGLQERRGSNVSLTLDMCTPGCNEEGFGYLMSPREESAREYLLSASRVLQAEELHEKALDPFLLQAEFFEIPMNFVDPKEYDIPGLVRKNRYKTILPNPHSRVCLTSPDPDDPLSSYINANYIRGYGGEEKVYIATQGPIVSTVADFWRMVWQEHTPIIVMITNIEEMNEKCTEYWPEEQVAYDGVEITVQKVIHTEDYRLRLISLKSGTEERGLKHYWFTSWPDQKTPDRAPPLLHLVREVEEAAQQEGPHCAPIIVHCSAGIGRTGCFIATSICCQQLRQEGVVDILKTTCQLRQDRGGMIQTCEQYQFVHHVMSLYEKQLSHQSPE
Genome polyprotein, sequence (P29990 2492-3391 limits assumed): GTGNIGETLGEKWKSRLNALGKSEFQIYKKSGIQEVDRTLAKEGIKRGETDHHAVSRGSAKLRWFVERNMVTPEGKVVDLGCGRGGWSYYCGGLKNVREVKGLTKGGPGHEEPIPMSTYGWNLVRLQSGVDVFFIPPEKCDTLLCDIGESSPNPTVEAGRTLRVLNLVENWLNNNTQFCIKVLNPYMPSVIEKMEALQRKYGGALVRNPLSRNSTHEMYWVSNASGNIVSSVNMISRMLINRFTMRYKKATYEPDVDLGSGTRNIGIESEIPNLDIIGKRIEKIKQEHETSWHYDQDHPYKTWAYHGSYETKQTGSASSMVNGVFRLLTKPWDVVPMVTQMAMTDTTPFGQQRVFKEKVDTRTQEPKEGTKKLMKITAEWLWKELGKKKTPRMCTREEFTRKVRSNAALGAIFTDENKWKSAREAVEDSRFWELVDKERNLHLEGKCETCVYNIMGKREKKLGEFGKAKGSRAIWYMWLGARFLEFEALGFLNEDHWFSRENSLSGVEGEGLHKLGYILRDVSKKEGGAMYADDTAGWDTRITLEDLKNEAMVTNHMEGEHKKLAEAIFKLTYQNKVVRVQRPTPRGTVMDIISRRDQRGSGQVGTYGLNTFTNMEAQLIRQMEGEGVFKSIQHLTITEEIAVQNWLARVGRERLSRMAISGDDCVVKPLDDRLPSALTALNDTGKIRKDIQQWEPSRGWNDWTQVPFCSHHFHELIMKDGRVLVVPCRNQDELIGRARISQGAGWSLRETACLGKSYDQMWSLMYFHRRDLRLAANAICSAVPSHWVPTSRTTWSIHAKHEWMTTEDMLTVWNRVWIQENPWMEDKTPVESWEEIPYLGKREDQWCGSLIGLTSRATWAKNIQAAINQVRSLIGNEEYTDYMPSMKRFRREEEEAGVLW
G-protein coupled receptor 183, sequence (P32249 whole entry): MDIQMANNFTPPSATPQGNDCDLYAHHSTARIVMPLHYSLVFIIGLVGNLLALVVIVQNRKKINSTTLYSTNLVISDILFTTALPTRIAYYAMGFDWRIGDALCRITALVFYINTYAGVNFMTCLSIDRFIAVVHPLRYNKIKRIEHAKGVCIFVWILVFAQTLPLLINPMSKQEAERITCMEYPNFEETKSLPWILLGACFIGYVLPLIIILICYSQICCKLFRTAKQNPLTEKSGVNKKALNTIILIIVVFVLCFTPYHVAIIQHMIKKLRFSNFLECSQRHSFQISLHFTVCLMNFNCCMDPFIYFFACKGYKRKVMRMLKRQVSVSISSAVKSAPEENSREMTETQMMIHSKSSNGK
Bifunctional protein GlmU, sequence (P9WMN3 whole entry): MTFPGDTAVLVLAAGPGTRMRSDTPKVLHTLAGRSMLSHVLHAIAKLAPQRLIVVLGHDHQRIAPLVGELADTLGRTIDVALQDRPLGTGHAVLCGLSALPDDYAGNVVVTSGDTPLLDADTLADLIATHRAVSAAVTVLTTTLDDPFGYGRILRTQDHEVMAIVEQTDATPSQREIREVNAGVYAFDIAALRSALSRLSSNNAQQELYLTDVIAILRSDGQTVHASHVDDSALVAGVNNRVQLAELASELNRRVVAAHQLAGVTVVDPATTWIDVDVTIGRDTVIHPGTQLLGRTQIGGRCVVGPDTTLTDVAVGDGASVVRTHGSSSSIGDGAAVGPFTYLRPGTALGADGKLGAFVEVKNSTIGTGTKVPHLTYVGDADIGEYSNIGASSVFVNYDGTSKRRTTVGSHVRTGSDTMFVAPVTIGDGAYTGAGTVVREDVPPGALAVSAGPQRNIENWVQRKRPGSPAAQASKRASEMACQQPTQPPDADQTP
Glutathione-S-transferase, sequence (Q26513 whole entry): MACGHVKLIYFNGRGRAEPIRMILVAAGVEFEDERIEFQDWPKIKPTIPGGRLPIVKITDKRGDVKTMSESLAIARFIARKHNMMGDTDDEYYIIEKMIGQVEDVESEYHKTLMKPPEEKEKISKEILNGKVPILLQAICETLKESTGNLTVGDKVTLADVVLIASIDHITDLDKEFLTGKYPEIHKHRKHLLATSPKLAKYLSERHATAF
Tyrosine-protein phosphatase non-receptor type 11, sequence (Q06124 whole entry, the tested form may be a part): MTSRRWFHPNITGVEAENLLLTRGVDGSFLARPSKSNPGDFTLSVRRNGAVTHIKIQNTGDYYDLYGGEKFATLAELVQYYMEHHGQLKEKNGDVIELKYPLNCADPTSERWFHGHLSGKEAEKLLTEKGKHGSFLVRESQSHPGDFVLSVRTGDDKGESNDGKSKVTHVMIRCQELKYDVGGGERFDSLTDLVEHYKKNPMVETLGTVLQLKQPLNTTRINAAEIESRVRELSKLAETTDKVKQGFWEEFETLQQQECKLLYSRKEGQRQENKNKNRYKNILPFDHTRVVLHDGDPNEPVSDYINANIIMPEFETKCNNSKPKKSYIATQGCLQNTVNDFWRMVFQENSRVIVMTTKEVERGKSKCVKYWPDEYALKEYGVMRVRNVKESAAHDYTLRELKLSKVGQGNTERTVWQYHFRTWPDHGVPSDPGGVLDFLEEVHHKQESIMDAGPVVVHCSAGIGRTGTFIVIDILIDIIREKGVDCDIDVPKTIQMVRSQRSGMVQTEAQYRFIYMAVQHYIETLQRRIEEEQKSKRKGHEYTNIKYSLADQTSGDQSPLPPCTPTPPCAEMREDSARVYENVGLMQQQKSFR
Dual specificity protein phosphatase 3, sequence (P51452 whole entry): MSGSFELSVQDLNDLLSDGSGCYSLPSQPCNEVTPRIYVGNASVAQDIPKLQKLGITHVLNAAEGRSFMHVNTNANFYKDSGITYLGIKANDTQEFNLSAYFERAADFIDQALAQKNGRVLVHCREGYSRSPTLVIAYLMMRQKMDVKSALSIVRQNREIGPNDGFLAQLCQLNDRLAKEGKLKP

COC(=O)C1=COC(C)C2CN3CCc4c([nH]c5ccccc45)C3CC12 (configuration not stated)
AC50 (Keap1/Nrf2): > 52 µM (inactive) | IC50 [1]: > 100 µM (active)

Cc1cccc2c1NC(=O)/C2=C1\Nc2ccc(Br)cc2\C1=N/O
IC50 (Danio rerio): 4.01 µM (not active)

COc1cc(/C=N/Nc2ccc(Cl)c(C(=O)O)c2)ccc1OC(=O)c1ccco1
IC50 (Leucine aminopeptidase): 48.8 µM (active) | IC50 [2]: 0.792 µM (active)

CCc1c(C)[nH]n(-c2ccc(Oc3ccccc3)c(S(=O)(=O)O)c2)c1=O
IC50 (Genome polyprotein): 84.5 µM (active) | IC50 [3]: 3.1 µM (active) | IC50 [4]: 4.83 µM (active) | IC50 [5]: 58.8 µM (inactive) | IC50 [6]: 3.6 µM (active) | IC50 [7]: 157 µM (active)

COc1cc2c(cc1C(=O)N1CCN(c3ccc(C(C)=O)cc3)CC1)OCO2
AC50 [8]: 13.7 µM (active)

O=C(/C=C/c1ccc(F)cc1)N1CCN(S(=O)(=O)c2ccc([N+](=O)[O-])cc2)CC1
IC50 [9]: 0.0129 µM (active)

C[C@H](CO)N1C[C@H](C)[C@@H](CN(C)CC2CC2)Oc2ccc(NC(=O)Nc3cccc4ccccc34)cc2CC1=O
AC50 [10]: 1.72 µM (active) | AC50 [11]: 2.09 µM (active) | AC50 [12]: 3.39 µM (active) | AC50 [13]: > 39 µM (inactive) | AC50 [14]: 2.93 µM (active)

NC1=CC(=O)c2ccccc2C1=O
AC50 [15]: 8.76 µM (active) | AC50 [16]: 25.1 µM (active) | AC50 [17]: 5.13 µM (active) | AC50 [18]: 9.48 µM (active) | AC50 [19]: 9.48 µM (active) | AC50 [20]: 56.9 µM (active) | AC50 [21]: > 70 µM (inactive) | AC50 [22]: 4.14 µM (active) | AC50 [23]: > 70 µM (inactive) | AC50 [24]: 65.7 µM (active) | AC50 [25]: 45.7 µM (active) | AC50 [26]: 6.75 µM (active) | AC50 [27]: 1.28 µM (active) | AC50 [28]: 12.1 µM (active)
